Results as given in patent publication US12509451B2, “Heteroaryl amide inhibitors of CD38” (NAPA THERAPEUTICS LTD., priority 2020, dated 2025).

What was measured:
[1] = system: human liver microtissues (hepatocytes, Kupffer cells, endothelial and stellate cells) in NASH induction media; test: Human 3D NASH model (InSphero Human 3D InSight), release of inflammatory markers; assay type: cell-based; conditions: supernatant, day 5
Description: The efficacy of Compound 35 was also determined in a NASH model (see InSphero Human 3D InSight™ Brunswick, ME) to investigate the effect of the molecule on the pathophysiological phenotype of NASH such as release of inflammatory markers. The microtissue model used is a co-culture of 4 different cell types of human liver cells (hepatocytes, Kupffer cells, endothelial and stellate cells) cultured for 10 days in a NASH induction media containing FFA, LPS and high levels of sugars. In the LEAN group the microtissues were cultured for 10 days in physiological-like medium. The reference compound, Selonsertib, a selective ASK1 inhibitor, was used as a down regulator of inflammatory markers. Cytokine and chemokine release in the supernatant were measured at day 5 using Magnetic Luminex® Assay (R&D Systems).

[2] = target: T1, human CD38 enzyme in primary human CD4+ T cells (Homo sapiens, UniProt P28907); test: NAD+ hydrolase activity assay in primary human activated CD4+ T cells (Assay 7); assay type: cell-based; conditions: primary human CD4+ T cells activated with anti-CD3/CD28
T1 construct: whole primary human CD4+ T cells (from healthy donors); endogenous in cells
T1 sequence (P28907 1-300): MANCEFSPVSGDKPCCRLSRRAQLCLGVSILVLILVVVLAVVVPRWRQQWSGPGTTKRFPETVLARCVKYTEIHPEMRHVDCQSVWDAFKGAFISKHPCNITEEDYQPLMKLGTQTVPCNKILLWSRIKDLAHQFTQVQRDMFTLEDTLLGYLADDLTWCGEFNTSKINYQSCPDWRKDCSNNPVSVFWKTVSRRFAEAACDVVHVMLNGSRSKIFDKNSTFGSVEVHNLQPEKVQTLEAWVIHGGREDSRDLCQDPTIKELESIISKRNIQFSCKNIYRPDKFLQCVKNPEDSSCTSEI
Description: The in vitro potency of Compound 35 against the human CD38 enzyme was determined by a fluorescence-based NAD+ hydrolase activity assay using the NAD+ analog nicotinamide 1,N^6-etheno-adenine dinucleotide (εNAD+) as substrate. The assay utilized: 1) whole primary human CD4+ T cells (from healthy donors) activated with anti-CD3/CD28 antibodies and expressing human CD38; or II) whole primary human macrophages (from healthy donors) stimulated with LPS to polarize in a pro-inflammatory M1 state expressing human CD38. The cells were incubated in the presence of 8 different concentrations of Compound 35 for 10 minutes and the reaction was started adding the substrate εNAD+. The emission of fluorescence was measured at 410-20 nm at 37° C. every minute for 1 hr. The NAD+ hydrolase activity was calculated as the slope of the linear portion of the fluorescence-time curve and used to calculate the IC50 value.

CD38 = target: T2, CD38 (Mus musculus, UniProt P56528); test: LPS-induced inflammation in mice, MS analysis of NAD+ metabolism in spleen and liver; assay type: in vivo
T2 construct: aged mice (male C57BL6/J, 22 months old) were fasted for 4 hr; from tissue; host or cells: C57BL6/J mice (aged, DIO obese or LPS-challenged); liver, spleen, plasma
T2 sequence (P56528 1-304): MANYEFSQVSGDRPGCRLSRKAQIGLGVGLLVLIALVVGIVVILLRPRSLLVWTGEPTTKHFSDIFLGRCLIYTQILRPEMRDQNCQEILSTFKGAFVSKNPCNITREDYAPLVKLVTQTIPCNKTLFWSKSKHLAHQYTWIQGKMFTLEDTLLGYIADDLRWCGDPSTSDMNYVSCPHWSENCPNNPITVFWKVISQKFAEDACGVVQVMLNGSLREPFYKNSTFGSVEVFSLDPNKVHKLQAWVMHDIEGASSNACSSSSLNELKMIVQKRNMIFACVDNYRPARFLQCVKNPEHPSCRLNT
Description: The in vivo efficacy of Compound 39 against the human CD38 enzyme after LPS challenge was assessed. The effects of Compound 39 (10 mg/kg and 30 mg/kg) on inflammato cytokines, inflammation markers and NAD+ levels at 4 h and 8 h points after LPS-induced inflammation in 12 weeks old male C57BL/6J mice were evaluated.
Animals were euthanized by terminal cardiac blood puncture immediately after terminal CO2, 4 h and 8 h after LPS administration. At necropsy, the tissues (Liver, Plasma, Spleen, Kidney, Lungs, Heart, Visceral Adipose Tissue, Muscle-Gastrocnemius) were collected and quick frozen in liquid nitrogen. The blood was collected in a BD Microtainer® K2EDTA Additive Tube, centrifuge at 1000 g for 10 min at 4° C. and plasma was store at −80° C.).

[3] = 30 mg/kg, 8 hours post LPS challenge

Row | IC50 [2] | increase of NAD+ levels in liver (CD38; 10 mg/kg, 8 hours post LPS challenge) | decrease of NAM levels in liver (CD38; [3]) | increase of NAD+ levels in spleen (CD38; [3]) | decrease in ADPR levels in spleen (CD38; 30 mg/kg, 8 h treatment) | ADPR levels in liver (CD38; treatment arms, 4 hours post LPS challenge) | Compound | release of NASH-induced inflammatory marker IL-8 [1] | release of NASH-induced inflammatory marker IP-10/CXCL-10 [1] | release of NASH-induced inflammatory marker MIP-1α/CCL3 [1] | release of NASH-induced inflammatory marker TNFα [1]
1 | 0.179 nM |  |  |  |  |  | COc1cc(C(=O)Nc2ccnc(C(F)(F)F)c2)nc(-n2ccnc2)c1 [Compound 35, 6-(1H-imidazol-1-yl)-4-methoxy-N-(2-(trifluoromethyl)pyridin-4-yl)picolinamide] | effectiveness in downregulating | effectiveness in downregulating | effectiveness in downregulating | effectiveness in downregulating
2 |  | 2 fold | 38% | 2.3 fold | 40% | decrease | COCCOc1cc(C(=O)Nc2ccnc(C(F)(F)F)c2)nc(-n2ccnc2)n1 [Compound 39, 2-(1H-imidazol-1-yl)-6-(2-methoxyethoxy)-N-(2-(trifluoromethyl)pyridin-4-yl)pyrimidine-4-carboxamide] |  |  |  | 
